# Results as given in publication PMC3400037, “Application of a single-objective, hybrid genetic algorithm approach to pharmacokinetic model building” (Journal of Pharmacokinetics and Pharmacodynamics, 2012).
# Like-named read-outs stand apart in the source and are kept apart here.
# Legend:
# [1] = Population pharmacokinetic model of clinical plasma concentration data, manual stepwise forward inclusion/backward elimination (NONMEM); assay type: in vivo, human; details: final stepwise model, IV
# Protocol: Manual stepwise model results were taken from the literature or were generated from unpublished data (DMAG) or data reported elsewhere in the literature. These models were determined using similar methods. Briefly, for each compound, a covariate free model was used to select the model compartment structure with the combination of inter-individual and residual variability structures resulting in the lowest objective function value calculated by NONMEM (twice the negative log likelihood plus a fixed constant offset) and a reasonable distribution of residuals as the base model.
# Univariate evaluations of covariates were then performed. […] The covariate and its function form that (1) yielded the lowest objective function conditional on (2) improved the objective function value by at least 3.84 (citalopram, DMAG, and [14, 15, 17, 21]) or 7.88 [16] points compared to the base model (which corresponds to Chi-squared values of p = 0.05 and p = 0.005 with one degree of freedom, respectively) and (3) in which there appeared to be a graphical relationship between the deviation in an individual predicted value and the covariate value across individual predicted values was included in the model. The remaining covariates were then included individually in the updated model, the inclusion criteria evaluated, and the model sequentially updated with additional covariates until no further covariates met the model inclusion criteria.
# Finally, individual covariates were removed from the final model and the change in the objective function was calculated. Covariates were excluded from the final model if, when the covariate was removed, the objective function value increased by less than 3.84 (citalopram, DMAG, [14, 15, 21]), 6.63 [17] (a Chi-squared value of p = 0.01 with one degree of freedom), or 7.88 [16]. Although the models were derived using different versions of NONMEM, the final models reported in the literature were re-run in NONMEM VI, Level 1.0 using Fortran G77 and NONMEM VII, version 7.2 with Intel Fortran to confirm that the results were independent of the NONMEM version.
# All continuous covariates were centered at zero.
# [2] = human, in vivo
# From the text: (§1) Individuals who received oral olanzapine [14], perphaenazine [15], risperidone [16], or ziprasidone [17] were patients treated between January 2001 and December 2004 as part of the Clinical Antipsychotic Trials of Intervention Effectiveness (CATIE)—a multisite, US study of randomized, double-blind, medication comparative-effectiveness trial—in the treatment of Alzheimer’s (CATIE-AD) and schizophrenia (CATIE-SZ). […] Individuals who received intravenous citalopram were part of a cross sectional study of healthy volunteers participating in Pittsburgh’s Adult and Human Behavior Project; these individuals were between the ages of 30 and 55 years and not taking medications for hypertension, lipid disorders, or diabetes [22]. Individuals who received intravenous DMAG were cancer patients either at Pittsburgh’s Cancer Institute or at Memorial Sloan-Kettering participating in a phase II study.
# (§2) The SOHGA operates on a set of candidate models in which each candidate specifies covariates included the in model, their functional forms, the structure of the inter-individual and residual variability, and the initial pharmacokinetic model parameter estimates [3]. Special-use software in which the SOHGA, coded and run in Microsoft Visual Studio and Compaq Digital Fortran, creates NONMEM control files to fit parameters and calculate the fitness of candidate models using NONMEM VI, Level 1.0 or NONMEM VII, version 7.2 using either first-order (risperidone only) or first-order conditional estimation with interaction using Xpose [23].
# (§3) The SOHGA retained a population of 200–400 candidate models for 30–50 generations. A total of 0.7 crossover events were expected per set of parents. Candidate models for crossover were randomly selected based on scaled fitness function values; linear regression was performed using all fitness functions within two standard deviations of the mean, the fitness of the regression values were scaled to between 0.2 and 4, and outlying values were assigned one of these extreme values. This scaling of the fitness function improves convergence by not permitting outliers to dominate the selection process. The mutation rate was 0.01 mutations per bit. The candidate model with best fitness function was retained to the next generation, a technique known as elitism. Niche evaluation (where a niches differ by <4 bits) was performed. In niche evaluation, a penalty is applied to models that are similar to other models (differ by 4 or fewer bits). This prevents early convergence, maintaining diversity in the population. Four niches were used, insuring that at least four regions of the search space were explored in each phase of the search. A simple downhill search was performed every five generations. In the downhill search, each bit of the best model in each niche in reversed (0 to 1, 1 to 0) and the resulting models run. For example, if the bit string if of length 40, the downhill search will generate 40 new models for each niche that each differ by a single bit. If any of the resulting models are better than the current best model for that niche, the process is repeated with that model, until no further improvement is seen. Finally, timeout conditions were set where NONMEM timed out (terminated without completion failing convergence) after up to 600 min for a model and a generation timed out after up to 6,000 min although the exact timeout conditions varied by compound.
# clinical = details: human, in vivo, iv
# From the text: as §1, §2, §3
# [3] = Population pharmacokinetic model of clinical plasma concentration data, single-objective hybrid genetic algorithm (SOHGA) coupled to NONMEM; details: best SOHGA candidate model
# From the text: as §1, §2, §3
# [4] = final stepwise model, oral, cited from earlier work; for Volume of distribution (L)—TVV / Clearance (L/h)—TVCL: one compartment with absorption; for Volume of distribution (L)—TVV: (relative standard error; perphenazine: 95 % CI from bootstrapping); for Absorption rate constant (1/h)—TVKA: fixed based on literature, not estimated
# [5] = three compartment, (relative standard error)
# [6] = IV, three compartment, (relative standard error)
# [7] = CYP2C19 genotype, (relative standard error)
# [8] = 3 component mixture for clearance, FO, (relative standard error)
# [9] = 3 component mixture for clearance
# [10] = oral, one compartment with absorption, (relative standard error)
smiles,measurement,setting,value
"CN(C)CCCC1(c2ccc(F)cc2)OCc2cc(C#N)ccc21 (stereo not shown) [Citalopram, citalopram]",Inter-individual variability—ωQ of ηQ,[1]; standard deviation ω,48.5 % (NA)
same,Inter-individual variability—ωV1 of ηV1,[1]; standard deviation ω,12.2 % (NA)
same,Inter-individual variability—ωV2 of ηV2,[1]; standard deviation ω,22.6 % (NA)
same,Central volume (L)—TVV1,[1]; two compartment,2.87 (NA) L
same,Peripheral volume (L)—TVV2,[1]; two compartment,"1,510 (NA) L"
same,clearance,"[1]; human, plasma, 0.33 mg/kg lean body mass, typical value (relative standard error), read-out: Clearance (L/h)—TVCL (converted)",7.11 L/h
same,Central volume (L)—TVV1,[2]; iv,82.1 (17.7 %) L
same,Inter-comp clearance (L/h)—TVQ,[2]; iv,6.26 (19.0 %) L/h
same,Inter-individual variability—ωQ of ηQ,[2]; iv,35.5 % (19.0 %)
same,Inter-individual variability—ωV1 of ηV1,[2]; iv,46.2 % (15.5 %)
same,Inter-individual variability—ωV2 of ηV2,[2]; iv,25.4 % (12.5 %)
same,Peripheral volume (L)—TVV2,[2]; iv,205 (12.6 %) L
same,clearance,clinical,20.3 mL/min
"CO[C@H]1/C=C\C=C(/C)C(=O)NC2=CC(=O)C(NCCN(C)C)=C(C[C@@H](C)C[C@H](OC)[C@H](O)[C@@H](C)/C=C(\C)[C@@H]1OC(N)=O)C2=O [DMAG, 17-(dimethylaminoethylamio)-17-demethoxygeldanamycin]",Inter-occasion variability (first compartment volume),[1],59.7 % (31.2 %)
same,"Inter-occasion variability—ωQ1 of ηOCC,Q1",[1],32.6 % (37.2 %)
same,Inter-patient variability—ωQ2 of ηQ2,[1],75.8 % (32.0 %)
same,Inter-patient variability—ωV3 of ηV3,[1],67.5 % (37.3 %)
same,Inter-individual variability—ωV1 of ηV1,[1]; standard deviation ω,33.0 % (111.9 %)
same,Inter-individual variability—ωV2 of ηV2,[1]; standard deviation ω,50.7 % (23.7 %)
same,Inter-patient variability—ωCL of ηCL,[1]; standard deviation ω,53.8 % (22.9 %)
same,First compartment volume (L)—TVV1,[1]; [5],27.4 (11.7 %) L
same,Second compartment volume (L)—TVV2,[1]; [5],66.4 (10.1 %) L
same,Third compartment volume (L)—TVV3,[1]; [5],142 (13.5 %) L
same,Clearance (L/h)—TVCL,[1]; typical value (relative standard error),8.4 (11.2 %) L/h
same,Inter-individual variability—ωV1 of ηV1,[3]; IV,39.7 % (24.5 %)
same,Inter-individual variability—ωV2 of ηV2,[3]; IV,42.3 % (24.8 %)
same,"Inter-occasion variability—ωCL of ηOCC,CL",[3]; IV,8.3 % (38.6 %)
same,"Inter-occasion variability—ωQ1 of ηOCC,Q1",[3]; IV,14.0 % (32.7 %)
same,Inter-patient variability—ωCL of ηCL,[3]; IV,22.1 % (29.1 %)
same,First compartment volume (L)—TVV1,[3]; [6],28.1 (12.9 %) L
same,Second compartment volume (L)—TVV2,[3]; [6],77.9 (11.4 %) L
same,Third compartment volume (L)—TVV3,[3]; [6],86.4 (8.5 %) L
same,Clearance (L/h)—TVCL,"[3]; IV, typical value (relative standard error)",9.28 (7.9 %) L/h
"CN(C)CCC[C@@]1(c2ccc(F)cc2)OCc2cc(C#N)ccc21 [Escitalopram, escitalopram]","Clearance (L/h)—TVCL, Missing metabolizer information",[4]; (relative standard error),21.5 (7.80 %) L/h
same,"Clearance (L/h)—TVCL, Extensive metabolizer",[4]; [7],26 (7.20 %) L/h
same,"Clearance (L/h)—TVCL, Poor metabolizer",[4]; [7],19.8 (8.50 %) L/h
same,Inter-individual variability—ωV of ηV,[4],62.0 % (40.3 %)
same,Volume of distribution (L)—TVV,[4],947 (10.2 %) L
same,Absorption rate constant (1/h)—TVKA,[2]; po,0.594 (23.1 %) 1/h
same,Clearance (L/h)—TVCL,[2]; po,25.5 (5.3 %) L/h
same,Inter-individual variability—ωV of ηV,[2]; po,59.4 % (32.6 %)
same,Volume of distribution (L)—TVV,[2]; po,874 (11.8 %) L
"Cc1cc2c(s1)Nc1ccccc1N=C2N1CCN(C)CC1 [Olanzapine, olanzapine]",Inter-individual variability—ωCL of ηCL,[4],68%
same,Inter-individual variability—ωV of ηV,[4],86%
same,Absorption rate constant (1/h)—TVKA,[4],Fixed at 0.5 1/h
same,Clearance (L/h)—TVCL,[4]; (relative standard error),16.1 (7.3 %) L/h
same,Volume of distribution (L)—TVV,[4],"2,150 (26.0 %) L"
same,Absorption rate constant (1/h)—TVKA,[2]; po,0.773 (70.4 %) 1/h
same,Clearance (L/h)—TVCL,[2]; po,21.1 (15.5 %) L/h
same,Inter-individual variability—ωCL of ηCL,[2]; po,64.7 % (17.2 %)
same,Volume of distribution (L)—TVV,[2]; po,"4,130 (48.9 %) L"
"OCCN1CCN(CCCN2c3ccccc3Sc3ccc(Cl)cc32)CC1 [Perphenazine, perphenazine]",Clearance (L/h)—TVCL,[4]; (relative standard error),483 L/h
same,Volume of distribution (L)—TVV,[4],"18,200 (13,865 - 65,795) L"
same,Absorption rate constant (1/h)—TVKA,[2]; po,0.859 (80.7 %) 1/h
same,Clearance (L/h)—TVCL,[2]; po,354 (12.3 %) L/h
same,Inter-individual variability—ωCL of ηCL,[2]; po,78.8 % (11.4 %)
same,Volume of distribution (L)—TVV,[2]; po,1.10x10^7 (172 %) L
"Cc1nc2n(c(=O)c1CCN1CCC(c3noc4cc(F)ccc34)CC1)CCCC2 [Risperidone, risperidone]","Clearance (L/h)—TVCL, Extensive metabolizer",[4]; [8],65.4 (9.9 %) L/h
same,"Clearance (L/h)—TVCL, Poor metabolizer",[4]; [8],12.9 (6.5 %) L/h
same,"Inter-individual variability—ωCL of ηCL, Extensive metabolizer",[4]; [9],56.6 % (16.8 %)
same,"Inter-individual variability—ωCL of ηCL, Poor metabolizer",[4]; [9],95.9 % (39.5 %)
same,Percent of subjects who were extensive metabolizers,[4]; [9],52.4 % (6.2 %)
same,Percent of subjects who were poor metabolizers,[4]; [9],41.2 % (8.1 %)
same,Inter-individual variability—ωKA of ηKA,[4],53.7 % (89.3 %)
same,Inter-individual variability—ωV of ηV,[4],36.1 % (24.4 %)
same,Absorption rate constant (1/h)—TVKA,[4],Fixed at 1.7 1/h
same,Volume of distribution (L)—TVV,[4],444 (17.8 %) L
same,Absorption rate constant (1/h)—TVKA,[2]; po,0.184.(21.1 %) 1/h
same,Central volume—TVV1,[2]; po,96.6 (31.2 %)
same,"Clearance (L/h)—TVCL, Extensive metabolizer",[2]; po,122 (11.5 %) L/h
same,"Clearance (L/h)—TVCL, Intermediate metabolizer",[2]; po,34.9 (8.9 %) L/h
same,"Clearance (L/h)—TVCL, Poor metabolizer",[2]; po,12.4 (8.5 %) L/h
same,Inter-comp clearance—TVQ,[2]; po,27.1 (29.9 %)
same,Inter-individual variability—η^(V1),[2]; po,478 % (46.4 %)
same,Inter-individual variability—ωCL of ηCL,[2]; po,7.3 % (32.2 %)
same,Percent of subjects who were extensive metabolizers,[2]; po,41.4 % (8.6 %)
same,Percent of subjects who were poor metabolizers,[2]; po,22.4 % (4.4 %)
same,Peripheral volume—TVV2,[2]; po,"1.31x10^10 (1,000 %)"
"O=C1Cc2cc(CCN3CCN(c4nsc5ccccc45)CC3)c(Cl)cc2N1 [Ziprasidone, ziprasidone]",Inter-individual variability—ωCL of ηCL,[4],64.8 % (25 %)
same,Inter-individual variability—ωV of ηV,[4],104.4 % (27 %)
same,Absorption rate constant (1/h)—TVKA,[4],Fixed at 0.5 1/h
same,Clearance (L/h)—TVCL,[4]; (relative standard error),122 (9 %) L/h
same,Volume of distribution (L)—TVV,[4],"1,060 (19 %) L"
same,Absorption rate constant (1/h)—TVKA,[2]; po,0.424 (5.8 %) 1/h
same,Inter-individual variability—ωCL of ηCL,[2]; po,69.0 % (21.4 %)
same,Inter-individual variability—ωV of ηV,[2]; po,114 % (16.0 %)
same,Clearance (L/h)—TVCL,[3]; [10],126 (9.0 %) L/h
same,Volume of distribution (L)—TVV,[3]; [10],"1,030 (12.4 %) L"
